Laboratory results taken from patent EP2919004A1, “Bioassays on modified TLC/HPTLC plates” (Merck Patent GmbH, priority 2014, dated 2015).

Test system: hER
Test: HPTLC-pYES (planar yeast estrogen screen) on RP-18 W plate, lac-Z reporter / MUG fluorescence
Format: cell-based, human
Conditions: for E2Eq: E2 equivalent calculated as EC50E2/EC50sample, recombinant Saccharomyces cerevisiae BJ3505, dose-response curves after separation on RP 18W plate, n=4; for estrogenic/bioactive effect in pYES: standard solutions or sample zone detected with the pYES, qualitative
Description: HPTLC. Standard and sample solutions (0.1-10 µL) were applied on the HPTLC plate RP-18 W (Merck Millipore, Darmstadt, Germany) as 6.5 mm bands by the Automatic TLC Sampler 4 (ATS4; CAMAG, Muttenz, Switzerland). […] The standard mixture was applied by overspaying of the individual standard solutions, which allowed flexibility for individual mixtures and volumes. For determination of the recovery rate, 0.1 µL P1 sample was sprayed on the plate and oversprayed with 0.1 µL - 2 µL CAPE standard solution. After sample application, the start zones were dried for 1 min using a hair dryer. Development was performed in a Twin Trough Chamber (20 x 10 cm, CAMAG), using n-hexane - toluene - ethyl acetate 4:1.5:1, v/v/v (all from ROTH) up to a migration distance of 70 mm. After development, the plate was dried with cold air using a hair dryer for 2 min to remove the residual solvent. The developed plate was documented at 366 nm illumination using the TLC Visualizer (CAMAG).
Cell cultivation. Saccharomyces cerevisiae BJ3505 (protease-deficient, MATα, PEP4: HIS3, Prb1Δ1.6R, HIS3Δ200, lys2-208, trp1Δ101, ura3-52) generated by McDonnell et al. (61, 62) was used for the pYES-assay. All experimental studies were based on stock of the recombinant estrogen sensitive yeast cells stored in 30% glycerol supplemented growth media, consisting of D-glucose 1 g/L, yeast nitrogen base 6.8 g/L, both Sigma Aldrich, Steinheim, Germany, and amino acid components according to Routledge and Sumpter (50), at -80 °C. From the stock, cells were streaked on an agar plate with growth medium (30°C, two days) to supply colonies for further suspension cultivation. Shaking suspension cultures were inoculated in 20 mL growth medium and cultured at 30 °C at 100 rpm for 18 h. Prior to the assay, cell concentration and viability determination was performed using a hemocytometer and trypan blue (0.4% Sigma Aldrich) staining. For the pYES, the cell number was adjusted to 2.5 x 10^8 cells in 50 mL with 150 µM CuSO4 supplemented growth medium. To remain constant cell quality within the exponential growth phase for further studies, cells were split daily by 1:10 dilution.
HPTLC-pYES. As the HPTLC was developed and cells were prepared, the pYES assay was started. The plate was automatically immersed into the cell suspension using the TLC Immersion Device (CAMAG) with a speed of 3.5 cm/s and an immersion time of 5 s. Thus, the cell suspension was homogeneously transferred onto the plate surface. The wettened plate was incubated in a horizontal position in a plastic box under almost 100% humidified air at 30 °C for 3 h. Thereafter, the plate was dried with cold air using a hair dryer for 2 min. For determination of the resulting ß-galactosidase, the plate was treated with the substrate 4-methylumbelliferyl-ß-D-galactopyranoside (MUG, Roth). ß-galactosidase acts on the substrate MUG to produce 4-methylumbelliferone (MU), detected as blue fluorescence at pH>7. MUG was dissolved in DMSO (20 mg/mL, Roth) and added to the reaction buffer (citric acid 6 g/L, disodium hydrogen phosphate 10 g/L, pH 12, Merck) to a final concentration of 0.5 mg/mL. The dried plate was immersed in the substrate solution according to the previous speed and immersion time. A second incubation period of 60 min at 37°C followed. The substrate reaction was terminated by immersion of the plate into a solution of glycine - NaOH (0.1 M, Roth), pH°12. […] Fluorescence measurement at 366/>400 nm was performed with the mercury lamp using the TLC Scanner 3 (CAMAG). Images were taken at 366 nm illumination using the Reprostar 3 documentation system (CAMAG).
The half maximal effective concentration (EC50) was calculated for comparison of the receptor affinities.

Compound	E2Eq	estrogenic/bioactive effect in pYES
CCCCCCCCCc1ccc(O)cc1 [NP, 4-n-Nonylphenol]	2.3x10^-4	
CC(C)(c1ccc(O)cc1)c1ccc(O)cc1 [BPA, bisphenol A]	3.3x10^-4	
O=C(/C=C/c1ccc(O)c(O)c1)OCCc1ccccc1 [CAPE, Caffeic acid phenethyl ester]		bioactive EDC zone
O=c1cc(-c2ccc(O)c(O)c2)oc2cc(O)cc(O)c12 [luteolin]		showed an estrogenic/bioactive effect
C#C[C@]1(O)CC[C@H]2[C@@H]3CCc4cc(O)ccc4[C@H]3CC[C@@]21C [EE2, 17α-ethinylestradiol]	0.3	
O=c1c(O)c(-c2ccc(O)c(O)c2)oc2cc(O)cc(O)c12 [quercetin]		showed an estrogenic/bioactive effect
